From patent EP4635966A1, “SYNTHETIC VARIANTS OF THE GANGLIOSIDE NGCGM3 AND USE THEREOF IN CANCER TREATMENT” (Centro de Inmunologia Molecular, priority 2022, dated 2024)

Columns and labels:
iNKT cells = assay: In vivo iNKT cell activation: serum IFNγ by ELISA after i.p. injection; design: species or system C57BL/6 mice; conditions: 200 µg i.p.; blood 16 hours after administration; Figure 7
Description: C57BL/6 mice were injected intraperitoneally with 200 µg of natural NGcGM3 ganglioside, NGcGM3 d18:1-C24:1, NGcGM3 d18:1-C 18:0 and 2 µg of αGalCer or vehicle (5.6 % sucrose, 0.75 % L-histidine and 0.5 % Tween-20) and blood was drawn 16 hours after the administration. Serum IFNγ levels were assessed by ELISA as an indirect measure of iNKT cell activation (Mouse IFNy ELISA Ready-SET-Go!, eBioscience).

EL-4 thymoma cells [1] = assay: EL-4 hepatic metastatic spread model (liver weight); assay type: in vivo, C57BL/6 mice
Description: Syngeneic C57BL/6 mice were inoculated intravenously through the tail vein with 2x10^5 EL-4 thymoma cells. Mice were randomized and distributed into groups of 7-9 animals. Experimental groups received intraperitoneal treatments with 200µg of synthetic and natural variants of NGcGM3 or vehicle (5.6% sucrose solution, 0.75% L-histidine and 0.5% Tween20) on days 1, 5 and 9. Animals were sacrificed 12-13 days after tumor inoculation, livers were removed and weighed to determine the level of hepatic metastatic spread. The liver weight of healthy animals of the same age and batch was used as a control.
Syngeneic C57BL/6 mice were inoculated intravenously through the tail vein with 2x10^5 EL-4 thymoma cells; mice were randomized and distributed into groups of 7-9 animals. Experimental groups received intraperitoneal treatments with 10-30 µg of nanoparticles of NGcGM3 d18:1-C24:1, NGcGM3 d18:1-C18:0 and natural NGcGM3 with OMPC of N. meningitidis on days 1, 5 and 9 or Tris/HCl solution (Placebo). Animals were sacrificed 12-13 days after tumor inoculation. To determine the level of liver metastatic spread, their livers were removed and weighed.
Syngeneic C57BL/6 mice were inoculated intravenously through the tail vein with 2x10^5 EL-4 thymoma cells; mice were randomized and distributed into groups of 7-9 animals. On the day following tumor inoculation, 6x10^5 bmDC, previously cultured for 16 hours with vehicle (DMSO 0.1%), NGcGM3 d18:1-C24:1 ganglioside (10 µg/ml) or NGcGM3 extracted from natural source (10 µg/ml) were administered in a single dose, intravenously. Cells were extensively washed with serum-free RPMI-1640 medium to remove excess of lipids before transfer. Animals were sacrificed 12-13 days after tumor inoculation, livers were collected and the level of hepatic metastatic spread was determined by weigh. Livers from healthy mice of the same age and batch were used as a reference. […] Clearly, the transfer of bmDC pulsed with NGcGM3 d18:1-C24:1, induce a significant reduction of EL-4 liver metastasis, compared to the placebo group, in which empty dendritic cells were transferred. […], the transfer of bmDC incubated with ganglioside extracted from a natural source was ineffective. (equal letters p>0.05, different letters p<0.05, ANOVA and Tukey tests). […]
To maintain the depletion of the populations of interest throughout the duration of the experiment, equal doses of depleting antibodies were administered on days 4 and 11 after tumor inoculation. Animals were sacrificed 12-13 days after tumor inoculation, livers were removed and the level of hepatic metastatic spread was determined by weigh. […]

EL-4 thymoma cells [2] = assay: Survival of EL-4 tumor-bearing mice; assay type: in vivo, C57BL/6 mice; conditions: 200 µg i.p. on days 1, 5 and 9; p=0.0005 vs placebo
Description: Syngeneic C57BL/6 mice were inoculated intravenously through the tail vein with 2x10^5 EL-4 thymoma cells (ATCC TIB-39); mice were randomized and distributed into groups of 7-9 animals. Experimental groups received intraperitoneal treatments with 200 µg of ganglioside variants NGcGM3 d18:1-C24:1 and NGcGM3 from natural source or vehicle (5.6% sucrose solution, 0.75% L-histidine and 0.5% Tween20) on days 1, 5 and 9. The animals were monitored and sacrificed if they presented any sign or symptom that affected their ability to ingest food and water or compromised their general state of health, according to veterinary criteria.
Syngeneic C57BL/6 mice were inoculated intravenously through the tail vein with 2x10^5 EL-4 thymoma cells; mice were randomized and distributed into groups of 7-9 animals. On the day following tumor inoculation, 6x10^5 bmDC previously cultured for 16 hours with vehicle (DMSO 0.1%), NGcGM3 d18:1-C24:1 ganglioside (10 µg/ml) or the ganglioside extracted from a natural source (10 µg/ml) were administered in a single dose, intravenously. Cells were washed extensively with serum-free RPMI-1640 medium to remove excess of lipids before transfer. Mice were monitored for signs or symptoms that affected their ability to ingest food and water or compromised their general health status, according to veterinary criteria.

P3X63 myeloma cells = assay: Subcutaneous P3X63 myeloma tumor growth (tumor volume); assay type: in vivo, BALB/c mice; conditions: day 5; for TV < 36 mm^3 (percentage distribution of tumor volume of the animals) / TV > 36 mm^3 (percentage distribution of tumor volume of the animals): Example 5, Table 1, i.p. on days 1, 5 and 9 (200 µg NGcGM3 d18:1-C24:1); for TV < 36 mm^3 (percentage distribution of tumor volume of the animals) / TV > 36 mm^3 (percentage distribution of tumor volume of the animals) / TV < 36 mm^3 (percentage distribution of tumor volume of animals) / TV > 36 mm^3 (percentage distribution of tumor volume of animals): 1x10^6 P3X63 s.c.; for growth of subcutaneous tumors: Example 5, p<0.001 for NGcGM3 d18:1-C24:1, p<0.05 for αGalCer vs placebo; for TV < 36 mm^3 (percentage distribution of tumor volume of animals) / TV > 36 mm^3 (percentage distribution of tumor volume of animals): Example 10, Table 2, treatment on days 1, 5 and 9; for antitumor effect (inhibition of tumor growth vs control group): Example 10, p=0.0031 NGcGM3 d18:1-C24:1, p=0.0004 GlycoVax 24:1
Description: 1x10^6 P3X63 cells were implanted subcutaneously into syngeneic BALB/c mice. Animals were randomized, divided into groups of 6-8 and received intraperitoneal treatments with 200 µg NGcGM3 d18:1-C24:1 ganglioside, αGalCer or vehicle (5.6% sucrose solution, 0.75% L-histidine and 0.5% Tween20 0.5%) on days 1, 5 and 9. Tumor diameters were measured with a caliper and tumor volume (TV) was calculated according to the formula: TV (mm^3) = π/6 × major diameter × (minor diameter)^2. […] The individual tumor volume values of the animals in each group and the mean and standard deviation of the mean in each case on day 5 of the experiment are shown. […] Table 1. Percentage distribution of tumor volume of the animals in each group.
1x10^6 P3X63 myeloma cells were implanted subcutaneously into syngeneic BALB/c mice. Animals were randomized, divided into groups of 6-8 and received treatments with vehicle solution (5.6% sucrose, 0.75% L-histidine and 0.5% Tween-20), αGalCer, NGcGM3 d18:1-C24:1 or nanoparticles of OMPC and NGcGM3 d18:1-C24:1 (GlycoVax 24:1) on days 1, 5 and 9.
Subcutaneous tumor diameters were measured every 2-3 days with a caliper and TV was calculated according to the formula: TV (mm^3) = π/6 × major diameter × (minor diameter)^2. […]

[3] = tested on: FF13 mouse iNKT-cell hybridoma; assay: In vitro iNKT cell activation: bmDC co-cultured with FF13 hybridoma, IL-2 by ELISA; assay type: cell-based; conditions: for activation of iNKT cell hybridoma (IL-2 secretion): Example 6
Description: The FF13 mouse iNKT-cell hybridoma previously described by Schumann J. (Schumann J. Eur J Immunol. 2007, 37:1431-41) was provided by Dr. Lucia Mori (University Hospital Basel, Switzerland) and was cultured in RPMI-1640 medium with GlutaMAX-I and 25 mM HEPES supplemented with 10 % heat-inactivated fetal bovine serum (FBS), 100 U/ml penicillin, 100 µg/ml streptomycin and 55 µM 2-mercaptoethanol.
Mature bone marrow precursor-derived dendritic cells (bmDC) were used as APCs for in vitro iNKT cell activation assays and in vivo adoptive transfer experiments. The bmDCs were obtained according to the previously described protocol of differentiation from bone marrow progenitors in the presence of granulocyte/macrophage colony stimulating factor (GM-CSF) (Inaba K. J ExpMed.1992, 176:1693-1702) with some modifications. Briefly, bone marrow progenitors were isolated from femurs and tibias of C57BL/6 mice and cultured in complete RPMI-1640 medium (RPMI-1640 with GlutaMAX-I, 10% FBS, 100 U/mL penicillin, 100 µg/mL streptomycin and 55 µM 2-mercaptoethanol) supplemented with 20 ng/mL GM-CSF (R&D Systems). The culture was fed with fresh medium on day 3 and maturation of bmDCs was induced with 1 µg/ml LPS. On day 7, cells were harvested and used for iNKT cell activation assays or adoptive transfer.
5x10^4 bmDC were grown in RPMI-1640 medium with 10% FBS in the presence of αGalCer at a concentration of 100 ng/ml and concentrations of 0.1, 1 and 10 µg/ml of natural NGcGM3 and the synthetic variants NGcGM3 d18:1-C24:1, NGcGM3 d18:1-C24:0, NGcGM3 d18:1-C18:0, NGcGM3 d18:1-C18:1 and NGcGM3 d18:1-C18:2 or vehicle (0.1 % DMSO) for 16 -24 hours. Then, 10^5 FF13 hybridoma cells were added and co-cultured with the bmDCs for 24 hours. The culture supernatants were collected and evaluated for IL-2 content by ELISA. […] Differences were observed between the NGcGM3 variants in terms of their antigenicity to iNKT cells based on the length and structure of the fatty acid in the ceramide.
5x10^4 bmDC were cultured in RPMI-1640 medium with 10% FBS in the presence of 10 µg/ml and 1 µg/ml of NGcGM3 d18:1-C24:1 ganglioside, GM3 d18:1-C24:1 or vehicle (0.1% DMSO) for 16-24 hours. Next, 10^5 FF13 hybridoma cells were added and co-cultured with the bmDCs for 24 hours. The culture supernatants were collected and IL-2 content quantified by ELISA. From Figure 8, the synthetic ganglioside variants NGcGM3 and GM3, with identical ceramide structure, have differences in their ability to stimulate iNKT cells.
5x10^4 bmDC were cultured in RPMI-1640 medium with 10% FBS in the presence of 100 ng/ml, 1 µg/ml or 10 µg/ml concentrations of nanoparticles, αGalCer or vehicle (0.1% DMSO) for 16 -24 hours. […] The culture supernatants were collected and IL-2 content quantified by ELISA. […]

Row | SMILES | serum IFNγ levels (in vivo activation of iNKT cells) (iNKT cells) | antimetastatic effect (liver weight, hepatic metastatic spread) (EL-4 thymoma cells [1]; 2x10^5 EL-4 i.v., 200 µg i.p. on days 1, 5 and 9, livers weighed 12-13 days after inoculation, Figure 2) | anti-metastatic effect (liver weight), NK and NKT cell populations not affected (EL-4 thymoma cells [1]; Example 18, 200 µg i.p. on days 1, 5 and 9 + PBS) | anti-metastatic effect (liver weight) after depletion of NK and NKT cells (EL-4 thymoma cells [1]; Example 18, 200 µg i.p. on days 1, 5 and 9 + anti-NK1.1 Mab, Figure 18a) | anti-metastatic effect (liver weight) after depletion of NK cells only (EL-4 thymoma cells [1]; Example 18, 200 µg i.p. on days 1, 5 and 9 + anti-asialoGM1 antibody, Figure 18b) | survival of EL-4 tumor-bearing animals (EL-4 thymoma cells [2]) | TV < 36 mm^3 (percentage distribution of tumor volume of the animals) (P3X63 myeloma cells) [%] | TV > 36 mm^3 (percentage distribution of tumor volume of the animals) (P3X63 myeloma cells) [%] | TV < 36 mm^3 (percentage distribution of tumor volume of the animals) (P3X63 myeloma cells; listed as NGcGM3 24:1) [%] | growth of subcutaneous tumors (P3X63 myeloma cells) | TV < 36 mm^3 (percentage distribution of tumor volume of animals) (P3X63 myeloma cells) [%] | TV > 36 mm^3 (percentage distribution of tumor volume of animals) (P3X63 myeloma cells) [%] | TV < 36 mm^3 (percentage distribution of tumor volume of animals) (P3X63 myeloma cells; listed as NGcGM3 24:1) [%] | antitumor effect (inhibition of tumor growth vs control group) (P3X63 myeloma cells) | activation of iNKT cell hybridoma (IL-2 secretion) ([3]; 100 ng/ml, same concentration as αGalCer) | activation of iNKT cell hybridoma (IL-2 secretion) ([3]; 0.1, 1 and 10 µg/ml on bmDC 16-24 h, co-culture 24 h, Figure 6) | activation of iNKT cell hybridoma (IL-2 secretion) ([3]; highest concentration tested, 10 µg/ml, αGalCer reference at 100 ng/ml) | iNKT cell activation (IL-2 secretion) compared with GM3 d18:1-C24:1 ([3]; Example 8, 10 µg/ml and 1 µg/ml, Figure 8)
1 | CCCCCCCCCCCCCC=CC(O)C(COC1OC(CO)C(OC2OC(CO)C(O)C(OC3(C(=O)O)CC(O)C(NC(=O)CO)C(C(O)C(O)CO)O3)C2O)C(O)C1O)NC(=O)CCCCCCCCCCCCCCCCC (stereo not shown) [NGcGM3 d18:1-C18:0, reference compound] | inactive |  |  |  |  |  |  |  |  |  |  |  |  |  |  |  |  | 
2 | CCCCCCCCC=CCCCCCCCCCCCCCC(=O)NC(COC1OC(CO)C(OC2OC(CO)C(O)C(OC3(C(=O)O)CC(O)C(NC(=O)CO)C(C(O)C(O)CO)O3)C2O)C(O)C1O)C(O)C=CCCCCCCCCCCCCC [NGcGM3 d18:1-C24:1, O-[3,5-didesoxy-5-hydroxyacetamido-D-glycero-α-D-galacto-2-nonupyranosyl-(2→3)-O-(β-D-galactopyranosyl)-(1→4)-β-D-glucopyranosyl-(1→1)-(2R,3S,4E)-2-tetracos-15-enamido-4-octadecene-1,3-diol] | higher than in the rest of the experimental groups | statistically significant antimetastatic effect | is present | abolishes the aforementioned anti-tumor effect | the antitumor effect is maintained | significantly increased the survival | 50 | 50 | 50 | significantly inhibited the growth of subcutaneous tumors | 50 | 50 | 50 | significant inhibition of tumor growth | able to activate iNKT cells | potent activation of FF13 hybridoma cells | surpass the effect of αGalCer | more potent effect on iNKT cell activation than the GM3 variant
3 | CCCCCCCCCCCCCCCCCCCCCCCCCC(=O)N[C@@H](CO[C@H]1O[C@H](CO)[C@H](O)[C@H](O)[C@H]1O)[C@H](O)[C@H](O)CCCCCCCCCCCCCC [αGalCer, α-galactosylceramide, reference compound] |  |  |  |  |  |  | 25 | 75 |  | significantly inhibited the growth of subcutaneous tumors | 25 | 75 |  | did not show a statistically significant antitumor effect |  |  |  | 
